The record followed here is patent US20080090805A1, “CB-1 MODULATING COMPOUNDS AND THEIR USE” (ACADIA PHARMACEUTICALS INC., priority 2005, published 2008).

A short description of data set [1]: Clearance study, liver microsomes (rats). The conditions noted are these: rat, pH 7.4.
Data set [2] in a line: Clearance study, liver microsomes (mice). The note with it: mouse, pH 7.4. For orientation: Liver microsomes are vesicles of endoplasmic reticulum, rich in cytochrome P450 enzymes.
Data set [3] can be described thus: Clearance study, liver microsomes (human). The note with it: pH 7.4.

Consider `O=C(NCc1cccs1)c1ccc2c(c1)N=C(c1cccc(Cl)c1)c1ccccc1S2` [drawing 1733], for which the microsomal CLint (commonly the rate of metabolic loss divided by the concentration) at 1 μM came out at 99 µL/min/mg in data set [1], 187 µL/min/mg in data set [2] and 32 µL/min/mg in data set [3]. In turn, `CC(C)CCNC(=O)c1ccc2c(c1)N=C(c1ccccn1)c1ccccc1S2` [drawing 1784] gave a microsomal CLint at 1 μM in data set [2] of 68 µL/min/mg. As to `CC(C)CNC(=O)c1ccc2c(c1)N=C(c1cccc(Cl)c1)c1ccccc1S2` [drawing 1795], in data set [2], the microsomal CLint at 1 μM stood at 69 µL/min/mg. `CCCCNC(=O)c1ccc2c(c1)N=C(c1ccc(Cl)s1)c1cc(F)ccc1S2` [drawing 1710]: the microsomal CLint at 1 μM turned out to be 111 µL/min/mg in data set [1] and 41 µL/min/mg in data set [3].

Regarding `O=C(NCCc1ccccc1)c1ccc2c(c1)N=C(c1ccc(F)cc1)c1ccccc1S2` [drawing 1773], the microsomal CLint at 1 μM in data set [1] is 274 µL/min/mg; in data set [3] it was 109 µL/min/mg.

Molecule `CC(C)CNC(=O)c1ccc2c(c1)N=C(c1ccc(Cl)s1)c1ccccc1S2` [drawing 1681] showed a microsomal CLint at 1 μM in data set [2] of 412 µL/min/mg. With `O=C(NCc1cccc(Cl)c1)c1ccc2c(c1)N=C(N1CCCCC1)c1ccccc1[S+]2[O-]` (stereo not shown) [drawing 1774], the values for the microsomal CLint at 1 μM in data set [1] and in data set [3] were 416 µL/min/mg and 90 µL/min/mg, respectively. Turning to `Cc1cccc(C2=Nc3cc(C(=O)NCc4ccc(C)o4)ccc3Sc3ccccc32)n1` [drawing 1789], the microsomal CLint at 1 μM in data set [1] was 632 µL/min/mg; in data set [3] it was 114 µL/min/mg.

As for `O=C(NCc1ccccc1)c1ccc2c(c1)N=C(C1CCCCC1)c1ccccc1S2` [drawing 1779], the microsomal CLint at 1 μM turned out to be 351 µL/min/mg in data set [1] and 81 µL/min/mg in data set [3]. As to `O=C(NCCc1ccc(Cl)cc1)c1ccc2c(c1)N=C(c1ccc(F)cc1)c1ccccc1S2` [drawing 1799], the microsomal CLint at 1 μM was 208 µL/min/mg in data set [1] and 100 µL/min/mg in data set [3]. The like results for `Cc1csc(CNC(=O)c2ccc3c(c2)N=C(c2cccc(F)c2)c2ccccc2S3)c1` [drawing 1709] were, in that order, 160 µL/min/mg and 42 µL/min/mg.

As for `CCOC(=O)N1CCC(NC(=O)c2ccc3c(c2)N=C(c2ccc(Cl)cc2)c2ccccc2S3)CC1` [drawing 1726], the microsomal CLint at 1 μM in data set [1] turned out to be 89 µL/min/mg; in data set [3], 88 µL/min/mg. Turning to `O=C(NCCCc1ccccc1)c1ccc2c(c1)N=C(c1cccc(Cl)c1)c1ccccc1S2` [drawing 1765], the microsomal CLint at 1 μM in data set [1] came out at 163 µL/min/mg; in data set [3], 72 µL/min/mg. On to `O=C(NCCCC(F)(F)F)c1ccc2c(c1)N=C(c1ccc(Cl)s1)c1ccccc1S2` [drawing 1655], for which the microsomal CLint at 1 μM stood at 136 µL/min/mg in data set [1] and 31 µL/min/mg in data set [3]. The like results for `CCN(CCNC(=O)c1ccc2c(c1)N=C(c1ccc(Cl)cc1)c1ccccc1S2)c1ccccc1` [drawing 1698] were, in that order, 210 µL/min/mg and 157 µL/min/mg. The like results for `O=C(NCCc1ccc(Cl)cc1)c1ccc2c(c1)N=C(c1ccc(Cl)cc1)c1ccccc1S2` [drawing 1807] were, in that order, 122 µL/min/mg and 54 µL/min/mg. The like results for `CC(C)CNC(=O)c1ccc2c(c1)N=C(c1ccc(Cl)s1)c1ccc(F)cc1S2` [drawing 1793] were, in that order, 49 µL/min/mg and 32 µL/min/mg. As for `O=C(NCCc1cccc(Cl)c1)c1ccc2c(c1)N=C(c1ccc(F)cc1)c1ccccc1S2` [drawing 1768], the values for the microsomal CLint at 1 μM in data set [1] and in data set [3] were 126 µL/min/mg and 37 µL/min/mg, respectively. For the molecule `Cc1ccc(CNC(=O)c2ccc3c(c2)N=C(c2ccc(F)cc2)c2ccccc2S3)o1` [drawing 1711], the microsomal CLint at 1 μM in data set [1] amounted to 258 µL/min/mg; in data set [3] it was 39 µL/min/mg. As to `CC(CNC(=O)c1ccc2c(c1)N=C(C1CCCCC1)c1ccccc1S2)c1ccccc1` (stereo not shown) [drawing 1769], the microsomal CLint at 1 μM in data set [1] turned out to be 267 µL/min/mg; in data set [3], 125 µL/min/mg.

Turning to `O=C(NCc1cccc(Cl)c1)c1ccc2c(c1)N=C(N1CCC(F)(F)CC1)c1ccccc1S2` [drawing 1800], the microsomal CLint at 1 μM in data set [2] was determined as 120 µL/min/mg.

In the case of `CC(C)CNC(=O)c1ccc2c(c1)N=C(c1ccc(Cl)cn1)c1ccc(Cl)cc1S2` [drawing 1806], the microsomal CLint at 1 μM worked out at 135 µL/min/mg in data set [1] and 13 µL/min/mg in data set [3]. The like results for `CCCCNC(=O)c1cnc2c(n1)N=C(c1ccccc1)c1ccccc1S2` [drawing 1722] were, in that order, 44 µL/min/mg and 38 µL/min/mg. `CCCCNC(=O)c1ccc2c(c1)N=C(c1ccc(Cl)cn1)c1cc(F)ccc1S2` [drawing 1748]: the microsomal CLint at 1 μM is 131 µL/min/mg in data set [1] and 57 µL/min/mg in data set [3].

For the molecule `O=C(NN1CCCCC1)c1ccc2c(c1)N=C(C1CCCCC1)c1ccccc1S2` [drawing 1695], the microsomal CLint at 1 μM in data set [2] was determined as 349 µL/min/mg. For the molecule `O=C(NCCc1cccc(Cl)c1)c1ccc2c(c1)N=C(c1ccc(Cl)cc1)c1ccccc1S2` [drawing 1766], the results for the microsomal CLint at 1 μM in data set [1] and in data set [3] were 116 µL/min/mg and 56 µL/min/mg, respectively. With `O=C(NCCC(F)(F)F)c1ccc2c(c1)N=C(c1cccc(Cl)c1)c1ccccc1S2` [drawing 1721], the microsomal CLint at 1 μM in data set [1] came to 40 µL/min/mg; in data set [3], 18 µL/min/mg. The like results for `CCCCNC(=O)c1ccc2c(c1)N=C(c1ccc(Cl)cc1)c1ccc(F)cc1S2` [drawing 1663] were, in that order, 79 µL/min/mg and 9 µL/min/mg. The like results for `Cc1ccc(N2CCN(C(=O)c3ccc4c(c3)N=C(c3ccc(Cl)cc3)c3ccccc3S4)CC2)c(C)c1` [drawing 1808] were, in that order, 39 µL/min/mg and 37 µL/min/mg. In the case of `O=C(NCc1ccc(F)cc1)c1ccc2c(c1)N=C(c1ccc(Cl)cc1)c1ccccc1S2(=O)=O` [drawing 1776], the microsomal CLint at 1 μM in data set [1] was determined as 17 µL/min/mg; in data set [3], 13 µL/min/mg. The like results for `O=C(NCc1ccc(F)cc1)c1ccc2c(c1)N=C(c1ccccc1)c1ccccc1S2` [drawing 1787] were, in that order, 242 µL/min/mg and 73 µL/min/mg. The like results for `O=C(NCc1ccc(F)cc1)c1ccc2c(c1)N=C(N1CCCCC1)c1ccccc1S2` [drawing 1738] were, in that order, 735 µL/min/mg and 255 µL/min/mg. As for `CCCCNC(=O)c1cc2c(cc1O)Sc1ccccc1C(c1ccc(Cl)cc1)=N2` [drawing 1672], the microsomal CLint at 1 μM in data set [1] worked out at 7 µL/min/mg; in data set [2] it was 12 µL/min/mg. `CCCCNC(=O)c1ccc2c(c1)N=C(c1ccc(Cl)cc1)c1cc(F)ccc1S2` [drawing 1702]: the microsomal CLint at 1 μM in data set [1] was 74 µL/min/mg; in data set [3], 12 µL/min/mg. On to `CCN(CCNC(=O)c1ccc2c(c1)N=C(C1CCCCC1)c1ccccc1S2)c1ccccc1` [drawing 1747], for which the microsomal CLint at 1 μM in data set [1] worked out at 379 µL/min/mg; in data set [3] it was 249 µL/min/mg. As for `CC(C)CNC(=O)c1ccc2c(c1)N=C(c1ccsc1)c1ccccc1S2` [drawing 1753], the microsomal CLint at 1 μM in data set [1] was determined as 427 µL/min/mg; in data set [3], 546 µL/min/mg. Take `O=C(NCc1cccc(Cl)c1)c1ccc2c(c1)N=C(C1CCCCC1)c1ccccc1S2` [drawing 1777]: the microsomal CLint at 1 μM was determined as 458 µL/min/mg in data set [1] and 70 µL/min/mg in data set [3]. For the molecule `Cc1cccc(C2=Nc3cc(C(=O)NCC(C)C)ccc3Sc3ccccc32)n1` [drawing 1692], the figures for the microsomal CLint at 1 μM in data set [1] and in data set [3] were 204 µL/min/mg and 35 µL/min/mg, respectively.

As to `O=C(NCCc1ccc(Cl)cc1)c1ccc2c(c1)N=C(c1cccc(Cl)c1)c1ccccc1S2` [drawing 1739], the results for the microsomal CLint at 1 μM in data set [1] and in data set [3] were 83 µL/min/mg and 62 µL/min/mg, respectively. In turn, `CCCCNC(=O)c1ccc2c(c1)N=C(c1ccc(Cl)cc1)c1ccccc1S2` [drawing 1661] returned a microsomal CLint at 1 μM in data set [2] of 99 µL/min/mg.

Take `O=C(NNCC(F)(F)F)c1ccc2c(c1)N=C(c1ccc(Cl)cc1)c1ccccc1S2` [drawing 1696]: the results for the microsomal CLint at 1 μM in data set [1] and in data set [3] were 39 µL/min/mg and 21 µL/min/mg, respectively. Regarding `CCCCNC(=O)c1ccc2c(c1)N=C(c1ccc(Cl)cn1)c1ccc(F)cc1S2` [drawing 1778], the microsomal CLint at 1 μM stood at 227 µL/min/mg in data set [1] and 29 µL/min/mg in data set [3]. The like results for `CC(C)CNC(=O)c1ccc2c(c1)N=C(c1ccc(Cl)cc1)c1ccc(Cl)cc1S2` [drawing 1718] were, in that order, 37 µL/min/mg and 4 µL/min/mg.

For `O=C(NCCc1ccc(Cl)cc1)c1ccc2c(c1)N=C(N1CCC(F)CC1)c1ccccc1S2` [drawing 1734], the values for the microsomal CLint at 1 μM in data set [1] and in data set [3] were 670 µL/min/mg and 476 µL/min/mg, respectively. For the molecule `CC(NC(=O)c1ccc2c(c1)N=C(c1ccc(Cl)cc1)c1ccccc1S2)c1ccccc1` (stereo not shown) [drawing 1804], the microsomal CLint at 1 μM in data set [1] amounted to 62 µL/min/mg; in data set [3], 18 µL/min/mg. `CC(C)CNC(=O)c1ccc2c(c1)N=C(c1ccc(Cl)cc1)c1ccc(F)cc1S2` [drawing 1657]: the microsomal CLint at 1 μM in data set [1] worked out at 63 µL/min/mg; in data set [3] it was 11 µL/min/mg. Turning to `CCCCNC(=O)c1ccc2c(c1)N=C(c1ccc(Cl)cc1)c1sccc1S2` [drawing 1717], in data set [2], the microsomal CLint at 1 μM came out at 79 µL/min/mg. With `Cc1csc(CNC(=O)c2ccc3c(c2)N=C(c2ccc(Cl)s2)c2ccccc2S3)c1` [drawing 1707], the intrinsic metabolic clearance (microsomal CLint) at 1 μM came to 90 µL/min/mg in data set [1] and 27 µL/min/mg in data set [3]. The like results for `O=C(NCCCC(F)(F)F)c1ccc2c(c1)N=C(c1ccc(Cl)cc1F)c1ccccc1S2` [drawing 1653] were, in that order, 105 µL/min/mg and 14 µL/min/mg. The like results for `O=C(NC1CCC(F)(F)CC1)c1ccc2c(c1)N=C(c1ccc(Cl)s1)c1ccccc1S2` [drawing 1699] were, in that order, 158 µL/min/mg and 20 µL/min/mg. The like results for `CCCCNC(=O)c1ccc2c(c1)N=C(c1cccc(Cl)c1)c1cc(Cl)ccc1S2` [drawing 1750] were, in that order, 52 µL/min/mg and 13 µL/min/mg. With `O=C(NCc1cccc(Cl)c1)c1ccc2c(c1)N=C(c1cccc(Cl)c1)c1ccccc1S2` [drawing 1729], the microsomal CLint at 1 μM in data set [1] amounted to 74 µL/min/mg; in data set [3], 36 µL/min/mg. The like results for `O=C(NCc1cccc(Cl)c1)c1ccc2c(c1)N=C(c1ccc(F)cc1)c1ccccc1[S+]2[O-]` (stereo not shown) [drawing 1790] were, in that order, 76 µL/min/mg and 24 µL/min/mg.
